Measurements taken from patent publication US20190315806A1, “POLYMYXIN DERIVATIVE, PREPARATION METHOD AND APPLICATION THEREOF” (priority 2016, published 2019).
Converted amounts (≈) assume the structure as drawn. Like-named read-outs stand apart in the source and are kept apart here. Where a SMILES comes first, the peptide text is derived from it. Bridges are numbered along the chain shown (N, C = ends). [ ]: non-standard residue; d: D form. The star is where a group is joined. Heptanoyl(6-Me) = CC(C)CCCCC(=O)*; Nonanoyl = CCCCCCCCC(=O)*; X2 = CC[C@H](C)CCCCC(=O)*; Heptanoyl = CCCCCCC(=O)*; Octanoyl = CCCCCCCC(=O)*; Dab = NCC[C@H](N)C(=O)O

Assays:
Assay type in all cases: cell-based
[1] = system: Klebsiella pneumoniae ATCC BAA-2146 (NDM-1); assay: Antibacterial activity, MIC by dish double dilution method
Summary of the method: (§1)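 MIC by CLSI agar (plate) twofold dilution, final compound levels 0.03–128 μg/mL in agar. Overnight cultures in nutrient broth, brain heart infusion or HTM broth were spotted at 10^4 CFU/dot by multipoint inoculator. After 18 to 24 hours at 35° C., MIC taken as lowest concentration showing no colony growth.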

[2] = Nephrotoxicity test, renal cytotoxicity by MTT method; conditions: African green monkey
Method: African green monkey kidney cells (Vero cells) were cultured in MEM medium (Hyclone), 10% fetal calf serum (Invitrogen) was added before use, cultured at 37° C. under 5% CO2.
Experiment was carried out using MTT method. After digestion, cells in logarithmic growth phase were counted, then the cells were inoculated in a 96-well culture plate. After incubation for 24 h to be adherent, cells were treated with a concentration gradient of a compound of the invention (e.g., a compound prepared in the Embodiments) and the controls. After 72 h, the culture solution was removed, 100 uL of MTT reagent at a concentration of 0.5 mg/ml was added, the medium was removed after incubating for 3 hours in a 37° C. incubator. Add 150 μL DMSO solvent to each well, mix for 3 min, after which the absorbance at 570 nm (A) was measured with a microplate reader.
Cell viability %=(Adosed cell−Abackground)/(Acontrol cell−Abackground)×100%. The average value of 3 parallel wells was taken for each detection point, and the inhibition curve was drawn to calculate the IC50 value.
The African green monkey kidney cells (Vero cells) used in the experiment were from the Cell Resource Center of the Institute of Basic Medicine, Chinese Academy of Medical Sciences.

[3] = system: Staphylococcus epidermidis ATCC 12228
Summary of the method: as §1

[4] = system: Acinetobacter baumannii ATCC 19606
Summary of the method: as §1

[5] = system: Escherichia coli ATCC 25922
Summary of the method: as §1

[6] = system: Pseudomonas aeruginosa ATCC 27853
Summary of the method: as §1

[7] = agar dilution, 10^4 CFU/dot, 18 to 24 hours at 35° C.

Compound	MIC K. pneumoniae ATCC BAA-2146 (NDM-1) [1, 7] [µg/mL]	IC50 at 72 h ([2]; MTT, 72 h treatment, 3 parallel wells, read-out: Renal cytotoxicity IC50, Vero cells) [µg/mL]	MIC S. epidermidis ATCC 12228 [3, 7] [µg/mL]	MIC A. baumannii ATCC 19606 [4, 7] [µg/mL]	MIC E. coli ATCC 25922 [5, 7] [µg/mL]	MIC P. aeruginosa ATCC 27853 [6, 7] [µg/mL]	IC50 at 72 h [2] [µg/mL]	MIC S. epidermidis ATCC 12228 ([3]; ATCC 12228) [µg/mL]	MIC A. baumannii ATCC 19606 ([4]; ATCC 19606) [µg/mL]	MIC E. coli ATCC 25922 ([5]; ATCC 25922) [µg/mL]	MIC P. aeruginosa ATCC 27853 ([6]; ATCC 27853) [µg/mL]	MIC K. pneumoniae ATCC BAA-2146 (NDM-1) ([1]; ATCC BAA-2146) [µg/mL]
CC[C@H](C)CCCCC(=O)N[C@@H](CCN)C(=O)N[C@H](C(=O)N[C@@H](CCN)C(=O)N[C@H]1CCNC(=O)[C@H]([C@@H](C)O)NC(=O)[C@H](CCN)NC(=O)[C@H](CCN)NC(=O)[C@H](CC(C)C)NC(=O)[C@@H](Cc2ccccc2)NC(=O)[C@H](CCN)NC1=O)[C@@H](C)O [Compound 42, (S)-6-methyloctanoyl-Dab-Thr-Dab-ring(4-10)[Dab-Dab-D-Phe-Leu-Dab-Dab-Thr]] (X2-[Dab]T[Dab][Dab][Dab][dF]L[Dab][Dab]T; lactam 4-C)	0.5 (≈ 0.415 µM)	71.3 ± 6.08 (≈ 59.2 µM)	32 (≈ 26.6 µM)	1 (≈ 0.831 µM)	0.5 (≈ 0.415 µM)	2 (≈ 1.66 µM)	–	–	–	–	–	–
CC(C)CCCCC(=O)N[C@@H](CCN)C(=O)N[C@H](C(=O)N[C@@H](CCN)C(=O)N[C@H]1CCNC(=O)[C@H]([C@@H](C)O)NC(=O)[C@H](CCN)NC(=O)[C@H](CCN)NC(=O)[C@H](CC(C)C)NC(=O)[C@@H](Cc2ccccc2)NC(=O)[C@H](CCN)NC1=O)[C@@H](C)O [Compound 43, 6-methylheptanoyl-Dab-Thr-Dab-ring(4-10)[Dab-Dab-D-Phe-Leu-Dab-Dab-Thr]] ({Heptanoyl(6-Me)}-[Dab]T[Dab][Dab][Dab][dF]L[Dab][Dab]T; lactam 4-C)	1 (≈ 0.841 µM)	–	–	–	–	–	159 ± 14.1 (≈ 134 µM)	64 (≈ 53.8 µM)	0.5 (≈ 0.42 µM)	0.5 (≈ 0.42 µM)	2 (≈ 1.68 µM)	–
CCCCCCCC(=O)N[C@@H](CCN)C(=O)N[C@H](C(=O)N[C@@H](CCN)C(=O)N[C@H]1CCNC(=O)[C@H]([C@@H](C)O)NC(=O)[C@H](CCN)NC(=O)[C@H](CCN)NC(=O)[C@H](CC(C)C)NC(=O)[C@@H](Cc2ccccc2)NC(=O)[C@H](CCN)NC1=O)[C@@H](C)O [Compound 44, octanoyl-Dab-Thr-Dab-ring(4-10)[Dab-Dab-D-Phe-Leu-Dab-Dab-Thr]] (Octanoyl-[Dab]T[Dab][Dab][Dab][dF]L[Dab][Dab]T; lactam 4-C)	–	–	–	–	–	–	86.4 ± 8.31 (≈ 72.6 µM)	32 (≈ 26.9 µM)	0.5 (≈ 0.42 µM)	0.5 (≈ 0.42 µM)	1 (≈ 0.841 µM)	1 (≈ 0.841 µM)
CCCCCCC(=O)N[C@@H](CCN)C(=O)N[C@H](C(=O)N[C@@H](CCN)C(=O)N[C@H]1CCNC(=O)[C@H]([C@@H](C)O)NC(=O)[C@H](CCN)NC(=O)[C@H](CCN)NC(=O)[C@H](CC(C)C)NC(=O)[C@@H](Cc2ccccc2)NC(=O)[C@H](CCN)NC1=O)[C@@H](C)O [Compound 45, heptanoyl-Dab-Thr-Dab-ring(4-10)[Dab-Dab-D-Phe-Leu-Dab-Dab-Thr]] (Heptanoyl-[Dab]T[Dab][Dab][Dab][dF]L[Dab][Dab]T; lactam 4-C)	–	–	–	–	–	–	160 ± 13.6 (≈ 136 µM)	128 (≈ 109 µM)	0.5 (≈ 0.425 µM)	0.5 (≈ 0.425 µM)	1 (≈ 0.851 µM)	0.5 (≈ 0.425 µM)
CCCCCCCCC(=O)N[C@@H](CCN)C(=O)N[C@H](C(=O)N[C@@H](CCN)C(=O)N[C@H]1CCNC(=O)[C@H]([C@@H](C)O)NC(=O)[C@H](CCN)NC(=O)[C@H](CCN)NC(=O)[C@H](CC(C)C)NC(=O)[C@@H](Cc2ccccc2)NC(=O)[C@H](CCN)NC1=O)[C@@H](C)O [Compound 46, nonanoyl-Dab-Thr-Dab-ring(4-10)[Dab-Dab-D-Phe-Leu-Dab-Dab-Thr]] (Nonanoyl-[Dab]T[Dab][Dab][Dab][dF]L[Dab][Dab]T; lactam 4-C)	–	–	–	–	–	–	33.1 ± 2.64 (≈ 27.5 µM)	32 (≈ 26.6 µM)	1 (≈ 0.831 µM)	1 (≈ 0.831 µM)	2 (≈ 1.66 µM)	2 (≈ 1.66 µM)
